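Values below derive from 48-hour exposures of cells grown in 96-well plates, with endpoints linearly interpolated between the two concentrations bracketing the appropriate inhibition level. At the TGI there is no net growth.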
What was measured:
Assay in all cases: NCI-60 cell line screen, 48 h
786-0 renal = system: 786-0 renal
A498 renal = system: A498 renal
A549 NSCLC = system: A549 NSCLC
ACHN renal = system: ACHN renal
BT-549 breast = system: BT-549 breast
CAKI-1 renal = system: CAKI-1 renal
CCRF-CEM leukemia = system: CCRF-CEM leukemia
COLO 205 colon = system: COLO 205 colon
DU-145 prostate = system: DU-145 prostate
HCC-2998 colon = system: HCC-2998 colon
HCT-116 colon = system: HCT-116 colon
HCT-15 colon = system: HCT-15 colon
HL-60(TB) leukemia = system: HL-60(TB) leukemia
HOP-62 NSCLC = system: HOP-62 NSCLC
HOP-92 NSCLC = system: HOP-92 NSCLC
HT29 colon = system: HT29 colon
IGROV1 ovarian = system: IGROV1 ovarian
K-562 leukemia = system: K-562 leukemia
KM12 colon = system: KM12 colon
LOX IMVI melanoma = system: LOX IMVI melanoma
M14 melanoma = system: M14 melanoma
MALME-3M melanoma = system: MALME-3M melanoma
MCF7 breast = system: MCF7 breast
MDA-MB-231 breast = system: MDA-MB-231 breast
MDA-MB-435 = system: MDA-MB-435
MDA-N = system: MDA-N
MOLT-4 leukemia = system: MOLT-4 leukemia
NCI-H226 lung = system: NCI-H226 lung
NCI-H23 lung = system: NCI-H23 lung
NCI-H460 lung = system: NCI-H460 lung
NCI/ADR-RES ovarian = system: NCI/ADR-RES ovarian
OVCAR-3 ovarian = system: OVCAR-3 ovarian
OVCAR-4 ovarian = system: OVCAR-4 ovarian
OVCAR-5 ovarian = system: OVCAR-5 ovarian
OVCAR-8 ovarian = system: OVCAR-8 ovarian
PC-3 prostate = system: PC-3 prostate
RPMI-8226 leukemia = system: RPMI-8226 leukemia
RXF 393 renal = system: RXF 393 renal
SF-268 CNS = system: SF-268 CNS
SF-295 CNS = system: SF-295 CNS
SF-539 CNS = system: SF-539 CNS
SK-MEL-2 melanoma = system: SK-MEL-2 melanoma
SK-MEL-28 melanoma = system: SK-MEL-28 melanoma
SK-MEL-5 melanoma = system: SK-MEL-5 melanoma
SK-OV-3 ovarian = system: SK-OV-3 ovarian
SN12C renal = system: SN12C renal
SNB-19 CNS = system: SNB-19 CNS
SR leukemia = system: SR leukemia
SW-620 colon = system: SW-620 colon
T-47D breast = system: T-47D breast
TK-10 renal = system: TK-10 renal
U251 CNS = system: U251 CNS
UACC-257 melanoma = system: UACC-257 melanoma
UO-31 renal = system: UO-31 renal
EKVX NSCLC = system: EKVX NSCLC
HS 578T breast = system: HS 578T breast
NCI-H522 lung = system: NCI-H522 lung
SNB-75 CNS = system: SNB-75 CNS
UACC-62 melanoma = system: UACC-62 melanoma

Measured: TGI

CC(=O)O[C@H]1CCC2[C@@H]3CCC4Nc5oncc5C[C@]4(C)C3CC[C@@]21C (some centres not stated)
9.84 µM: SF-539 CNS
4.58 µM: HL-60(TB) leukemia
not listed: EKVX NSCLC | HS 578T breast | NCI-H522 lung | SNB-75 CNS | UACC-62 melanoma
> 10 µM: all other assays above

CCOc1ccncc1[N+](=O)[O-]
not listed: COLO 205 colon | HCC-2998 colon | HOP-92 NSCLC | NCI-H460 lung | OVCAR-3 ovarian | OVCAR-4 ovarian
> 100 µM: all other assays above

Cc1nc2sc3c(c2c(=O)[nH]1)CCCC3
86.1 µM: NCI-H460 lung
68.2 µM: UO-31 renal
81.1 µM: SR leukemia
not listed: CCRF-CEM leukemia | HCC-2998 colon
> 100 µM: all other assays above

O=C(O)c1ccc(OCc2ccccc2)c(Cl)c1
not listed: HCC-2998 colon
> 100 µM: all other assays above
